Measurements reported in paper PMC5681660, “Reduced hepatitis B and D viral entry using clinically applied drugs as novel inhibitors of the bile acid transporter NTCP” (Scientific Reports, 2017).
Counter-ions that a name gives are not always drawn. Like-named read-outs stand apart in the source and are kept apart here.

Legend:
human NTCP [1] = target: T1, human NTCP (Homo sapiens, UniProt Q14973); assay: Screening taurocholate uptake assay (96-well, [14C]taurocholate, 10 µM drug)
T1 sequence (Q14973 1-349): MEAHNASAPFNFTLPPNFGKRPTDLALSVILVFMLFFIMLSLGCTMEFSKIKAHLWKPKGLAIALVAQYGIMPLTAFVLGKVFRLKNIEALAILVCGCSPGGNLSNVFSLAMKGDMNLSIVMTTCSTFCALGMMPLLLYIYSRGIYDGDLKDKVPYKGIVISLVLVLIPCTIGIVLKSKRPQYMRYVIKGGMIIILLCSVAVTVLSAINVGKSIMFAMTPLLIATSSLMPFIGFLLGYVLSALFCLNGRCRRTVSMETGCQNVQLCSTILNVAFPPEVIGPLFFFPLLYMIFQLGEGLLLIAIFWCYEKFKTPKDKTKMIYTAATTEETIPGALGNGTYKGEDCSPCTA

human NTCP [2] = target: T1, human NTCP; assay: Screening fluorescent competitive Myrcludex B-FITC binding assay (96-well, 10 µM drug)
[3] = combined ranking from functional and binding screening assays
[4] = screen, 10 µM drug, taurocholate uptake
[5] = screen, 10 µM drug, Myrcludex B-FITC binding
[6] = Prestwick library screen, 10 µM drug, B-score of taurocholate uptake
[7] = combined ranking from functional and binding assay B-scores
[8] = Prestwick library screen, 10 µM drug, B-score of Myrcludex B-FITC binding
[9] = Prestwick library screen, taurocholate uptake, 10 µM drug
[10] = ranking score beside the functional and binding assay B-scores of the screen
[11] = Prestwick library screen, Myrcludex B-FITC binding, 10 µM drug

| Compound | Ranking score (human NTCP [1]; [3]) | B-score functional assay (human NTCP [1]; [4]) | B-score binding assay (human NTCP [2]; [5]) | B-score functional assay (human NTCP [1]; [9]) | Ranking score (human NTCP [1]; [10]) | B-score binding assay (human NTCP [2]; [11]) | other results |
| --- | --- | --- | --- | --- | --- | --- | --- |
| C[N+](C)(CCOc1ccccc1)Cc1ccccc1.O=C([O-])c1cc2ccccc2cc1O [Bephenium hydroxynaphthoate] | 452.073 | -0.101 | -0.482 |  |  |  |  |
| CC(C)COCC(CN(Cc1ccccc1)c1ccccc1)N1CCCC1 (centres unmarked) [Bepridil hydrochloride] | 392.989 | 1.07 | -1.626 |  |  |  |  |
| Cl.N[C@@H]1CCCCN(c2c(F)cc3c(=O)c(C(=O)O)cn(C4CC4)c3c2Cl)C1 [Besifloxacin hydrochloride] |  |  |  |  |  |  | B-score functional assay (human NTCP [1]; [6]): 1.274; Ranking score (human NTCP [1]; [7]): 1087.71; B-score binding assay (human NTCP [2]; [8]): 1.112 |
| C[C@H]1C[C@H]2[C@@H]3CCC4=CC(=O)C=C[C@]4(C)[C@@]3(F)[C@@H](O)C[C@]2(C)[C@@]1(O)C(=O)CO [Betamethasone] |  |  |  | 0.975 | 747.052 | -0.13 |  |
| NCCc1cc[nH]n1 [Betazole hydrochloride] |  |  |  | 0.019 | 836.299 | 1.024 |  |
| CC(C[N+](C)(C)C)OC(N)=O (centres unmarked) [Bethanechol chloride] |  |  |  |  |  |  | B-score functional assay (human NTCP [1]; [6]): 1.898; Ranking score (human NTCP [1]; [7]): 1067.05; B-score binding assay (human NTCP [2]; [8]): 0.661 |
| CC(C)(Oc1ccc(CCNC(=O)c2ccc(Cl)cc2)cc1)C(=O)O [Bezafibrate] | 430.871 | -1.123 | 0.184 |  |  |  |  |
| COc1ccccc1Oc1c(NS(=O)(=O)c2ccc(C(C)(C)C)cc2)nc(-c2ncccn2)nc1OCCO [Bosentan] |  |  |  | 0.07 | 688.78 | 0.008 |  |
| CC[N+](C)(C)Cc1ccccc1Br [Bretylium tosylate] | 436.134 | -1.625 | 1.504 |  |  |  |  |
| Brc1c(NC2=NCCN2)ccc2nccnc12.O=C(O)C(O)C(O)C(=O)O [Brimondine L-Tartrate] | 294.551 | -1.091 | -0.57 |  |  |  |  |
| CCN[C@H]1CN(CCCOC)S(=O)(=O)c2sc(S(N)(=O)=O)cc21 [Brinzolamide] |  |  |  | 0.266 | 792.227 | 0.124 |  |
| CC(C)C[C@H]1C(=O)N2CCC[C@H]2[C@]2(O)O[C@](NC(=O)[C@@H]3C=C4c5cccc6[nH]c(Br)c(c56)C[C@H]4N(C)C3)(C(C)C)C(=O)N12.CS(=O)(=O)O [Bromocryptine mesylate] | 349.571 | -0.957 | -0.252 |  |  |  |  |
| CCN(CC)CCNC(=O)c1cc(Br)c(N)cc1OC [Bromopride] |  |  |  |  |  |  | B-score functional assay (human NTCP [1]; [6]): 0.033; Ranking score (human NTCP [1]; [7]): 880.053; B-score binding assay (human NTCP [2]; [8]): 1.459 |
| O=C(CCCN1CCC(O)(c2ccc(Br)cc2)CC1)c1ccc(F)cc1 [Bromperidol] |  |  |  | 0.496 | 757.533 | -0.002 |  |
| COc1cc(OC)c(C(=O)CCCN2CCCC2)c(OC)c1.Cl [Buflomedil hydrochloride] |  |  |  | 2.687 | 823.499 | -0.086 |  |
| CCCCNc1cc(C(=O)O)cc(S(N)(=O)=O)c1Oc1ccccc1 [Bumetanide] |  |  |  |  |  |  | B-score functional assay (human NTCP [1]; [6]): 0.161; Ranking score (human NTCP [1]; [7]): 907.588; B-score binding assay (human NTCP [2]; [8]): 1.043 |
| CCCCN(CCCC)CCCOC(=O)c1ccc(N)cc1 [Butacaine] |  |  |  | -0.185 | 672.37 | 0.529 |  |
| C=CCC1(CC(C)C)C(=O)NC(=O)NC1=O [Butalbital] |  |  |  |  |  |  | B-score functional assay (human NTCP [1]): -0.027; Ranking score (human NTCP [1]): 849.583; B-score binding assay (human NTCP [2]): 2.017 |
| CCCCOC(=O)c1ccc(N)cc1 [Butamben] |  |  |  |  |  |  | B-score functional assay (human NTCP [1]; [6]): 0.768; Ranking score (human NTCP [1]; [7]): 1050.86; B-score binding assay (human NTCP [2]; [8]): 1.315 |
| CN(Cc1ccc(C(C)(C)C)cc1)Cc1cccc2ccccc12 [Butenafine Hydrochloride] |  |  |  |  |  |  | B-score functional assay (human NTCP [1]; [6]): 1.115; Ranking score (human NTCP [1]; [7]): 986.495; B-score binding assay (human NTCP [2]; [8]): 0.435 |
| CCCCOC(=O)c1ccc(O)cc1 [Butylparaben] |  |  |  | 5.239 | 668.543 | -0.593 |  |
| CCCC[N+]1(C)[C@@H]2C[C@@H](OC(=O)[C@H](CO)c3ccccc3)C[C@H]1[C@@H]1O[C@@H]12.[Br-] (some centres unmarked) [Butylscopolammonium (n-) bromide] | 409.241 | -0.739 | -0.108 |  |  |  |  |

| Compound | Ranking score (human NTCP [1]; [3]) | B-score functional assay (human NTCP [1]; [4]) | B-score binding assay (human NTCP [2]; [5]) | B-score functional assay (human NTCP [1]; [9]) | Ranking score (human NTCP [1]; [10]) | B-score binding assay (human NTCP [2]; [11]) | other results |
| --- | --- | --- | --- | --- | --- | --- | --- |
| Cn1c(=O)c2c(ncn2C)n(C)c1=O [Caffeine] |  |  |  | 0.363 | 818.709 | 0.154 |  |
| CC[C@@]1(O)C(=O)OCc2c1cc1n(c2=O)Cc2cc3ccccc3nc2-1 [Camptothecine (S,+)] |  |  |  |  |  |  | B-score functional assay (human NTCP [1]; [6]): 0.986; Ranking score (human NTCP [1]; [7]): 879.695; B-score binding assay (human NTCP [2]; [8]): 0.08 |
| CCN(CC)CCNC(C(=O)OCCC(C)C)c1ccccc1.Cl.Cl (centres unmarked) [Camylofine chlorhydrate] |  |  |  |  |  |  | B-score functional assay (human NTCP [1]; [6]): 1.768; Ranking score (human NTCP [1]; [7]): 947.253; B-score binding assay (human NTCP [2]; [8]): 0.138 |
| CCOc1nc2cccc(C(=O)O)c2n1Cc1ccc(-c2ccccc2-c2nnn[nH]2)cc1 [Candesartan] |  |  |  | 0.287 | 798.474 | 0.128 |  |
| C[C@]12CCC(=O)C=C1C=C[C@@H]1[C@@H]2CC[C@@]2(C)[C@H]1CC[C@@]2(O)CCC(=O)[O-].[K+] [Canrenoic acid potassium salt] |  |  |  | 0.356 | 751.562 | 0.007 |  |
| C[C@]12CCC(=O)C=C1C=C[C@@H]1[C@@H]2CC[C@@]2(C)[C@H]1CC[C@@]21CCC(=O)O1 [Canrenone] | 379.419 | -0.551 | -0.43 |  |  |  |  |
| C[C@H](CS)C(=O)N1CCC[C@H]1C(=O)O [Captopril] |  |  |  |  | 728.08 | 0.648 |  |
| COC(=O)N/N=C/c1c[n+]([O-])c2ccccc2[n+]1[O-] [Carbadox] |  |  |  |  |  |  | B-score functional assay (human NTCP [1]; [6]): 0.663; Ranking score (human NTCP [1]; [7]): 963.5; B-score binding assay (human NTCP [2]; [8]): 0.674 |
| NC(=O)N1c2ccccc2C=Cc2ccccc21 [Carbamazepine] |  |  |  | -0.062 | 671.795 | 0.183 |  |
| CCN(CC)CCOCCOC(=O)C1(c2ccccc2)CCCC1 [Carbetapentane citrate] |  |  |  |  |  |  | B-score functional assay (human NTCP [1]; [6]): 0.114; Ranking score (human NTCP [1]; [7]): 943.43; B-score binding assay (human NTCP [2]; [8]): 1.7 |
| CN(C)CCOC(c1ccc(Cl)cc1)c1ccccn1.O=C(O)/C=C\C(=O)O (centres unmarked) [Carbinoxamine maleate salt] | 433.532 | 3.2 | -1.565 |  |  |  |  |
| CCCC(C)(COC(N)=O)COC(=O)NC(C)C (centres unmarked) [Carisoprodol] |  |  |  | -0.248 | 768.775 | 3.83 |  |
| CCCCCCNC(=O)n1cc(F)c(=O)[nH]c1=O [Carmofur] | 358.68 | -2.036 | 0.877 |  |  |  |  |
| CC(C(=O)O)c1ccc2c(c1)[nH]c1ccc(Cl)cc12 (centres unmarked) [Carprofen] | 288.205 | -2.152 | 0.048 |  |  |  |  |
| COc1ccccc1OCCNCC(O)COc1cccc2[nH]c3ccccc3c12 (centres unmarked) [Carvedilol] | 348.775 | -0.341 | -0.836 |  |  |  |  |
| CCC1=C[C@@H]2CN3CCc4c([nH]c5ccccc45)[C@@](C(=O)OC)(C2)[C@@H]13 [Catharanthine] | 448.328 | -0.613 | -0.047 |  |  |  |  |
| N[C@@H](C(=O)N[C@@H]1C(=O)N2C(C(=O)O)=C(Cl)CS[C@H]12)c1ccccc1.O [Cefaclor hydrate] | 381.916 | -0.668 | -0.309 |  |  |  |  |
| CC1=C(C(=O)O)N2C(=O)[C@@H](NC(=O)[C@H](N)c3ccc(O)cc3)[C@H]2SC1 [Cefadroxil] | 439.805 | -0.032 | -0.675 |  |  |  |  |
| Cc1nnc(SCC2=C(C(=O)O)N3C(=O)[C@@H](NC(=O)Cn4cnnn4)[C@H]3SC2)s1 [Cefazolin sodium salt] |  |  |  | 0.093 | 718.895 | 0.04 |  |
| CO/N=C(\C(=O)N[C@@H]1C(=O)N2C(C(=O)O)=C(COC(C)=O)CS[C@H]12)c1csc(N)n1 [Cefotaxime sodium salt] | 382.157 | 3.35 | -1.895 |  |  |  |  |
| CO[C@@]1(NC(=O)C2SC(=C(C(N)=O)C(=O)O)S2)C(=O)N2C(C(=O)O)=C(CSc3nnnn3C)CS[C@@H]21 (some centres unmarked) [Cefotetan] |  |  |  | 4.862 | 655.496 | -0.646 |  |
| CO[C@@]1(NC(=O)Cc2cccs2)C(=O)N2C(C(=O)O)=C(COC(N)=O)CS[C@@H]21 [Cefoxitin sodium salt] |  |  |  |  |  |  | B-score functional assay (human NTCP [1]; [6]): 1.114; Ranking score (human NTCP [1]; [7]): 868.493; B-score binding assay (human NTCP [2]; [8]): 0.041 |
